Laboratory results reported in ChEMBL document CHEMBL5143721, “Novel Hydroxychalcone-Based Dual Inhibitors of Aldose Reductase and α-Glucosidase as Potential Therapeutic Agents against Diabetes Mellitus and Its Complications” (J Med Chem, 2022).
The source made the active and inactive calls. The calls are words filed in the database; no cut-off is given here.

Key:
[1] = Antioxidant activity assessed as DPPH radical scavenging activity at 50 uM incubated for 30 mins by DPPH assay relative to control; type: functional
[2] = system: Rattus norvegicus; assay: Antidiabetic activity against STZ-induced diabetic Sprague-Dawley rat model assessed as increase in liver glycogen levels at 160 mg/kg, IG administered once daily for 28 days; type: functional; conditions: time 28 day
[3] = In vivo inhibition of ALR2 in STZ-induced diabetic Sprague-Dawley rat model assessed as reduction in ALR2 activity in lens at 160 mg/kg, IG administered once daily for 28 days relative to control; type: functional; parameters: scale not given: the % may be the effect or the level left; conditions: time 28 day
[4] = system: Rattus norvegicus; assay: Antidiabetic activity against STZ-induced diabetic Sprague-Dawley rat model assessed as reduction in triglycerides level in liver at 160 mg/kg, IG administered once daily for 28 days relative to control; type: functional; parameters: scale not given: the % may be the effect or the level left; conditions: time 28 day
[5] = Octanol/buffer distribution coefficient, log D of compound at pH 7.4 incubated for 24 hrs by shake flask based HPLC method; type: physicochemical
[6] = system: Rattus norvegicus; assay: Antidiabetic activity against 12 hrs fasted STZ-induced diabetic Sprague-Dawley rat model assessed as reduction in blood glucose level at 160 mg/kg, IG administered once daily for 28 days followed by glucose addition after 30 mins post cpd treatment and measured after 30 mins post glucose treatment by oral glucose tolerance test; type: functional, organism-based; conditions: time 673.0 hrs
[7] = Inhibition of Wistar rat kidney ALR1 using sodium D-glucuronate as substrate preincubated for 10 mins in presence of NADPH followed by substrate addition and measured after 4 mins; type: tissue-based
[8] = system: Brain; assay: Antioxidant activity in rat brain homogenate assessed as inhibition of lipid peroxidation by measuring MDA concentration at 5 uM by TBARS assay relative to control; type: functional, tissue-based; parameters: scale not given: the % may be the effect or the level left
[9] = Antioxidant activity assessed as DPPH radical scavenging activity at 5 uM incubated for 30 mins by DPPH assay relative to control; type: functional
[10] = system: Brain; assay: Antioxidant activity in rat brain homogenate assessed as inhibition of lipid peroxidation by measuring MDA concentration at 10 uM relative to control; type: functional, tissue-based; parameters: scale not given: the % may be the effect or the level left
[11] = system: Brain; assay: Antioxidant activity in rat brain homogenate assessed as inhibition of lipid peroxidation by measuring MDA concentration at 50 uM by TBARS assay relative to control; type: functional, tissue-based; parameters: scale not given: the % may be the effect or the level left
[12] = system: Brain; assay: Antioxidant activity in rat brain homogenate assessed as inhibition of lipid peroxidation by measuring MDA concentration at 1 uM by TBARS assay relative to control; type: functional, tissue-based; parameters: scale not given: the % may be the effect or the level left
[13] = system: Rattus norvegicus; assay: Antidiabetic activity against STZ-induced diabetic Sprague-Dawley rat model assessed as reduction in total cholesterol level in serum at 160 mg/kg, IG administered once daily for 28 days relative to control; type: functional; parameters: scale not given: the % may be the effect or the level left; conditions: time 28 day
[14] = system: Rattus norvegicus; assay: Antidiabetic activity against 12 hrs fasted STZ-induced diabetic Sprague-Dawley rat model assessed as reduction in AUC of blood glucose level at 160 mg/kg, IG administered once daily for 28 days followed by maltose addition after 30 mins post cpd treatment and measured after 30 mins post maltose treatment; type: functional; parameters: scale not given: the % may be the effect or the level left; conditions: time 673 hrs
[15] = system: HEK-293T; assay: Cytotoxicity against HEK293T cells at 15 to 200 micromol/L by MTT assay; type: toxicity, cell-based; conditions: human, dose 15-200 µmol/L
[16] = Inhibition of Wistar rat lens ALR2 using D,L-glyceraldehyde as substrate preincubated for 10 mins in presence of NADPH followed by substrate addition and measured after 4 mins; type: tissue-based
[17] = Antioxidant activity assessed as DPPH radical scavenging activity at 10 uM incubated for 30 mins by DPPH assay relative to control; type: functional
[18] = Antioxidant activity assessed as DPPH radical scavenging activity at 100 uM incubated for 30 mins by DPPH assay relative to control; type: functional
[19] = system: Rattus norvegicus; assay: Antidiabetic activity against STZ-induced diabetic Sprague-Dawley rat model assessed as reduction in fasting blood glucose level at 160 mg/kg, IG administered once daily for 28 days; type: functional; parameters: scale not given: the % may be the effect or the level left; conditions: time 28 day
[20] = system: Brain; assay: Antioxidant activity in rat brain homogenate assessed as inhibition of lipid peroxidation by measuring MDA concentration at 100 uM by TBARS assay relative to control; type: functional, tissue-based; parameters: scale not given: the % may be the effect or the level left
[21] = species: Rattus norvegicus; assay: Selectivity index, ratio of IC50 for Wistar rat kidney ALR1 to IC50 for Wistar rat lens ALR2
[22] = system: Rattus norvegicus; assay: Antidiabetic activity against STZ-induced diabetic Sprague-Dawley rat model assessed as reduction in triglycerides level in serum at 160 mg/kg, IG administered once daily for 28 days relative to control; type: functional; parameters: scale not given: the % may be the effect or the level left; conditions: time 28 day
[23] = Antioxidant activity assessed as DPPH radical scavenging activity at 1 uM incubated for 30 mins by DPPH assay relative to control; type: functional
[24] = system: Rattus norvegicus; assay: Antidiabetic activity against STZ-induced diabetic Sprague-Dawley rat model assessed as reduction in fasting blood glucose level at 80 mg/kg, IG administered once daily for 28 days; type: functional; parameters: scale not given: the % may be the effect or the level left; conditions: time 28 day
[25] = system: Rattus norvegicus; assay: Antidiabetic activity against 12 hrs fasted STZ-induced diabetic Sprague-Dawley rat model assessed as reduction in AUC of blood glucose at 80 mg/kg, IG administered once daily for 28 days followed by maltose addition after 30 mins post cpd treatment and measured after 30 mins post maltose treatment; type: functional; parameters: scale not given: the % may be the effect or the level left
[26] = system: Rattus norvegicus; assay: Antidiabetic activity against STZ-induced diabetic Sprague-Dawley rat model assessed as reduction in fasting blood glucose level at 100 mg/kg, IG administered once daily for 28 days; type: functional; parameters: scale not given: the % may be the effect or the level left; conditions: time 28 day
[27] = Inhibition of Saccharomyces cerevisiae Alpha-glucosidase using p-nitrophenyl glucopyranoside as substrate preincubated for 5 mins followed by substrate addition and measured for 30 mins
[28] = system: Saccharomyces cerevisiae; assay: Non competitive inhibition of Saccharomyces cerevisiae alpha-glucosidase using p-nitrophenyl glucopyranoside as substrate up to 200 uM by Lineweaver-Burk plot analysis
[29] = species: Rattus norvegicus; assay: Non competitive inhibition of Wistar rat lens ALR2 using D,L-glyceraldehyde as substrate up to 200 uM by Lineweaver-Burk plot analysis; type: tissue-based
[30] = In vivo inhibition of ALR2 in STZ-induced diabetic Sprague-Dawley rat model assessed as reduction in ALR2 activity in lens at 80 mg/kg, IG administered once daily for 28 days relative to control; type: functional; parameters: scale not given: the % may be the effect or the level left; conditions: time 28 day
[31] = system: Rattus norvegicus; assay: Antioxidant activity against STZ-induced diabetic Sprague-Dawley rat model assessed as reduction in MDA level at 80 to 160 mg/kg, IG administered once daily for 28 days relative to control; type: functional, organism-based; conditions: dose 80-160 mg/kg, time 28.0 day
[32] = system: Rattus norvegicus; assay: Antidiabetic activity against STZ-induced diabetic Sprague-Dawley rat model assessed as reduction in total cholesterol level in serum at 80 mg/kg, IG administered once daily for 28 days relative to control; type: functional; parameters: scale not given: the % may be the effect or the level left; conditions: time 28 day
[33] = system: Rattus norvegicus; assay: Antidiabetic activity against STZ-induced diabetic Sprague-Dawley rat model assessed as reduction in triglycerides level in liver at 80 mg/kg, IG administered once daily for 28 days relative to control; type: functional; parameters: scale not given: the % may be the effect or the level left; conditions: time 28 day
[34] = system: Rattus norvegicus; assay: Antioxidant activity against STZ-induced diabetic Sprague-Dawley rat model assessed as reduction in GSH level at 160 mg/kg, IG administered once daily for 28 days relative to control; type: functional; parameters: scale not given: the % may be the effect or the level left; conditions: time 28 day
[35] = In vivo inhibition of ALR2 in STZ-induced diabetic Sprague-Dawley rat model assessed as reduction in sorbitol accumulation in lens at 160 mg/kg, IG administered once daily for 28 days by colorimetric assay relative to control; type: functional; parameters: scale not given: the % may be the effect or the level left; conditions: time 28 day
[36] = In vivo inhibition of ALR2 in STZ-induced diabetic Sprague-Dawley rat model assessed as reduction in sorbitol accumulation in red blood cells at 160 mg/kg, IG administered once daily for 28 days by colorimetric assay relative to control; type: functional; parameters: scale not given: the % may be the effect or the level left; conditions: time 28 day
[37] = In vivo inhibition of ALR2 in STZ-induced diabetic Sprague-Dawley rat model assessed as reduction in sorbitol accumulation in lens at 80 mg/kg, IG administered once daily for 28 days by colorimetric assay relative to control; type: functional; parameters: scale not given: the % may be the effect or the level left; conditions: time 28 day
[38] = system: Rattus norvegicus; assay: Antioxidant activity against STZ-induced diabetic Sprague-Dawley rat model assessed as reduction in SOD level at 80 mg/kg, IG administered once daily for 28 days relative to control; type: functional; parameters: scale not given: the % may be the effect or the level left; conditions: time 28 day
[39] = system: Rattus norvegicus; assay: Antioxidant activity against STZ-induced diabetic Sprague-Dawley rat model assessed as reduction in GSH level at 80 mg/kg, IG administered once daily for 28 days relative to control; type: functional; parameters: scale not given: the % may be the effect or the level left; conditions: time 28 day
[40] = system: Rattus norvegicus; assay: Antidiabetic activity against STZ-induced diabetic Sprague-Dawley rat model assessed as reduction in triglycerides level in serum at 80 mg/kg, IG administered once daily for 28 days relative to control; type: functional; parameters: scale not given: the % may be the effect or the level left; conditions: time 28 day
[41] = In vivo inhibition of ALR2 in STZ-induced diabetic Sprague-Dawley rat model assessed as reduction in sorbitol accumulation in red blood cells at 80 mg/kg, IG administered once daily for 28 days by colorimetric assay relative to control; type: functional; parameters: scale not given: the % may be the effect or the level left; conditions: time 28 day
[42] = system: Rattus norvegicus; assay: Antidiabetic activity against STZ-induced diabetic Sprague-Dawley rat model assessed as reduction in total cholesterol level in liver at 80 mg/kg, IG administered once daily for 28 days relative to control; type: functional; parameters: scale not given: the % may be the effect or the level left; conditions: time 28 day
[43] = system: Rattus norvegicus; assay: Antidiabetic activity against STZ-induced diabetic Sprague-Dawley rat model assessed as reduction in total cholesterol level in liver at 160 mg/kg, IG administered once daily for 28 days relative to control; type: functional; parameters: scale not given: the % may be the effect or the level left; conditions: time 28 day
[44] = system: Rattus norvegicus; assay: Antioxidant activity against STZ-induced diabetic Sprague-Dawley rat model assessed as reduction in SOD level at 160 mg/kg, IG administered once daily for 28 days relative to control; type: functional; parameters: scale not given: the % may be the effect or the level left; conditions: time 28 day

CC(C)=CCn1c(=O)oc2c(C(=O)/C=C/c3ccc(O)c(O)c3)cccc21
Activity [1]: 96% | Activity [2]: 43.83% | Activity [3]: 47.2% | Activity [4]: 32.8% | logD at 24 h [5]: 0.98 | Activity [6]: Active | IC50 [7]: 7.48 µM | Activity [8]: 52% | Activity [9]: 90.9% | Activity [10]: 65.8% | Activity [11]: 90.7% | Activity [12]: 35% | Activity [13]: 50.7% | Activity [14]: 21.16% | Activity [15]: Non-Toxic | IC50 [16]: 0.149 µM | Activity [17]: 93% | Activity [18]: 98% | Activity [19]: 20.7% | Activity [20]: 97% | Ratio IC50 [21]: 39.7 | Activity [22]: 64.3% | Activity [23]: 41.2%

C[C@H]1O[C@H](O[C@H]2[C@H](O)[C@@H](O)[C@@H](O[C@H]3[C@H](O)[C@@H](O)C(O)O[C@@H]3CO)O[C@@H]2CO)[C@H](O)[C@@H](O)[C@@H]1N[C@H]1C=C(CO)[C@@H](O)[C@H](O)[C@H]1O (stereo partly specified) [ACARBOSE]
Activity [24]: 16.2% | Activity [25]: 22.35%

CN(C)C(=N)NC(=N)N [METFORMIN]
Activity [26]: 38.5%

CC(C)=CCCn1c(=O)oc2c(C(=O)/C=C/c3ccc(O)c(O)c3)cccc21
Activity [1]: 97% | logD at 24 h [5]: 1.04 | IC50 [27]: 4.13 µM | IC50 [7]: 10.3 µM | Activity [8]: 63.2% | Activity [9]: 89.8% | Activity [10]: 73% | Activity [11]: 92.5% | Activity [12]: 34.2% | Km [28]: 449 µM | Km [29]: 585 µM | IC50 [16]: 0.13 µM | Activity [17]: 94.4% | Activity [18]: 98.5% | Activity [20]: 96.4% | Ratio IC50 [21]: 79.3 | Activity [23]: 44.7%

COC(=O)Cn1c(=O)oc2c(C(=O)/C=C/c3ccc(O)c(O)c3)cccc21
Activity [30]: 60.8% | Activity [1]: 96.5% | Activity [31]: Active | Activity [2]: 36.58% | Activity [3]: 52.1% | Activity [4]: 33.8% | logD at 24 h [5]: 0.86 | Activity [32]: 46% | Activity [33]: 30.6% | Activity [6]: Active | Activity [34]: 52.3% | IC50 [7]: 6.22 µM | Activity [8]: 60.5% | Activity [9]: 89.4% | Activity [35]: 34.1% | Activity [10]: 77.5% | Activity [11]: 91.6% | Activity [12]: 35.8% | Activity [13]: 44.1% | Activity [24]: 20.5% | Activity [36]: 64.7% | Activity [37]: 41.7% | Activity [15]: Non-Toxic | Activity [38]: 35.5% | IC50 [16]: 0.114 µM | Activity [39]: 26.8% | Activity [17]: 94.9% | Activity [40]: 44% | Activity [41]: 59.7% | Activity [42]: 32.1% | Activity [18]: 97.5% | Activity [19]: 30.4% | Activity [20]: 97.5% | Ratio IC50 [21]: 54.6 | Activity [22]: 56.5% | Activity [43]: 3.1% | Activity [23]: 41.2% | Activity [44]: 81.3%
